Reference: patent publication EP1151753B1, “PREVENTIVE AND THERAPEUTIC AGENTS FOR ARTERIOSCLEROSIS” (CCI CORPORATION, priority 1999, dated 2000)

System: ICR mice
Experiment: Test for acute toxicity
Type: in vivo
Conditions: 500 mg/kg orally, suspension in aqueous 5% gum arabic solution, visual inspection for one week
Experimental: The agent of this invention for preventing and curing arteriosclerosis was tested for acute toxicity with a view to confirming the safety. Groups each formed of three ICR mice aged 4 to 5 weeks were used for the test. The same TMG as mentioned above was suspended as the chromanol glucoside in an aqueous 5% gum arabic solution. The suspension was orally administered to the mice at a dosage of 500 mg/kg as reduced to TMG and the mice were kept under visual inspection for one week. To the control group, the aqueous 5% gum arabic solution was orally administered at a rate of 0.3 ml.

Question: Cc1c(C)c2c(c(C)c1O)CCC(C)(C[C@H]1O[C@H](CO)[C@@H](O)[C@H](O)[C@H]1O)O2 (stereo partly drawn) [TMG, 2-(α-D-glucopyranosyl)methyl-2,5,7,8-tetramethyl chroman-6-ol] was tested. Which fatality did it give?
Answer: The fatality was “None of the mice”.
